Measured values reported in patent publication US20220204539A1, “CD73 INHIBITORS” (BioArdis LLC, priority 2019, published 2022).
Where two headings read alike, the source gives them in different places.

Experiments:
[1] = molecular target: T1, Cell surface CD73 of U87 MG human glioblastoma cells (Homo sapiens, UniProt P21589); assay: CD73 Cellular Assay; format: cell-based; conditions: 5000 cells per well, 30 μM AMP substrate, read-out: Potency (IC50, CD73 cellular assay)
T1 construct: Cell surface CD73 catalyzes the conversion of adenosine monophosphate (AMP) to adenosine and inorganic phosphate; endogenous in cells; host or cells: U87 MG human glioblastoma cells
T1 sequence (P21589 27-549): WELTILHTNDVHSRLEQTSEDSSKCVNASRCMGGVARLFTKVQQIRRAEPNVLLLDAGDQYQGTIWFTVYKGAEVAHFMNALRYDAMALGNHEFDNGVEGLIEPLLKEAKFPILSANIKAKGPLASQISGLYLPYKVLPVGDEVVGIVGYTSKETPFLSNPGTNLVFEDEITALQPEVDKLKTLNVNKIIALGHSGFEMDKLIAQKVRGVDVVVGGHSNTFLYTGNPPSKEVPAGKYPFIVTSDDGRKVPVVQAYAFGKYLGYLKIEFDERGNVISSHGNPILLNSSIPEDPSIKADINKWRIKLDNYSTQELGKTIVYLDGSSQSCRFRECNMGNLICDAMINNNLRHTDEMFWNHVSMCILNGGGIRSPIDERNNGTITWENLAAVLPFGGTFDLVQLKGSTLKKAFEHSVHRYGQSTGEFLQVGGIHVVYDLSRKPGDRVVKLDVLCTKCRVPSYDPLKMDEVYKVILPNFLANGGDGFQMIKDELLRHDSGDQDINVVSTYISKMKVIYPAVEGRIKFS
Protocol: Cell surface CD73 catalyzes the conversion of adenosine monophosphate (AMP) to adenosine and inorganic phosphate. U87 MG human glioblastoma cells express high level of CD73. Cells are treated with compounds in a 96-well assay plate and supernatants are collected into a 384-well detection plate. The concentration of inorganic phosphate (Pi) in the supernatants is determined using the phosphate detection reagent, PiColorLock™ (Innova Bioscience, Cat #303-0125) following the manufacturer's instructions.
Briefly, on the day of the assay, U87 MG cells were harvested and resuspended in assay buffer which consisted of 20 mM HEPES, pH=7.4, 137 mM NaCl, 5.4 mM KCl, 1.3 mM CaCl2, 4.2 mM NaHCO3 and 0.1% glucose. To test the effect of compounds on cellular CD73 enzymatic activity, 500 nL/well of compounds dissolved in DMSO were added to a 96-well TC-treated microplate (Corning #3599). Next, 80 μL/well of U87 MG cells in assay buffer were added to assay plate. After 30 minutes of incubation in an atmosphere of 5% CO2 at 37° C., 20 μL/well of 150 μM AMP (Adenosine 5′-monophosphate monohydrate, Sigma, Cat #01930) in assay buffer was added to assay plate. Final assay conditions consisted of 5000 cells per well in 0.5% DMSO and 30 μM AMP substrate. After 50 minutes of incubation in an atmosphere of 5% CO2 at 37° C., 50 μL/well of supernatant was transferred to the 384-well detection plate (Corning® NBS™ 384 well plates, Cat #3640). Meanwhile “Gold mix” was prepared shortly before use by adding 1/100 volume of accelerator to the PiColorLock™ Gold reagent. 12 μL/well of the “Gold mix” was added to detection plate containing 50 μL/well of supernatant and incubated at 25° C. for 5 minutes. 5 μL/well stabilizer was added to the detection plate and incubated at 25° C. for 30 minutes. The absorbance at 635 nm was measured on a Spark 10M instrument (TECAN). The percent (%) inhibition at each concentration of a compound was calculated relative to the OD value in the Max and Min control wells contained within each assay plate. The Max control wells contained cells and substrate as 0% inhibition, and the Min control wells only contained cells as 100% inhibition. The concentrations and percent inhibition values for a test compound are plotted and the concentration of a the compound required to achieve 50% inhibition (IC50) was determined with a four-parameter logistic dose response equation.

[2] = molecular target: T2, Recombinant Human 5′-Nucleotidase (CD73) (Homo sapiens, UniProt P21589); assay: CD73 Enzyme Assay; format: biochemical
T2 construct: CHO derived CD73 (Trp27-Lys547), with a C-terminal 6-His tag; 6-His (C); purchased R&D 5795-EN; host or cells: CHO
T2 sequence (P21589 27-547): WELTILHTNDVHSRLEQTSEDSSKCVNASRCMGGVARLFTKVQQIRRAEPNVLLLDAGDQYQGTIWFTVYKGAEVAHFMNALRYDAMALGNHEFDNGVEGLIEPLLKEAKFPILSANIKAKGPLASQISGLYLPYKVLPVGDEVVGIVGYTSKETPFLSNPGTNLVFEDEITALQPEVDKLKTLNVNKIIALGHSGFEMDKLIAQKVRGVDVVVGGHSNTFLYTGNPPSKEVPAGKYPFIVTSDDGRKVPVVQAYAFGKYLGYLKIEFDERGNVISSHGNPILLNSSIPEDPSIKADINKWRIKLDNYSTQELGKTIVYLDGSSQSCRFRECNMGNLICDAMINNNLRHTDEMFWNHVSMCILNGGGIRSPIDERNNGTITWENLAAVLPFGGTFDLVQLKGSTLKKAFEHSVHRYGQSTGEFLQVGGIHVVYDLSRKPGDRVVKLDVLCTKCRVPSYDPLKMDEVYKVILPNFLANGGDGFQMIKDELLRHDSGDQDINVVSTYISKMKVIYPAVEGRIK
Description: Soluble recombinant CD73 catalyzes the conversion of adenosine monophosphate (AMP) to adenosine and inorganic phosphate. The phosphate detection reagent, PiColorLock™ (Innova Bioscience, Cat #303-0125) is based on the change in absorbance of the dye malachite green in the presence of inorganic phosphate (Pi) and this property can be exploited to measure any enzyme that generates Pi. Recombinant Human 5′-Nucleotidase (CD73) (R&D #5795-EN, CHO derived CD73 (Trp27-Lys547), with a C-terminal 6-His tag) was used in the enzymatic assay. This assay was run in a 384-well plate format (Corning® NBS™ 384 well plates, Cat #3640). The basic assay procedure involves two steps: 1) Enzyme reaction: The CD73 enzyme (R&D #5795-EN) is incubated in the presence or absence of compounds. AMP (sigma, cat #01930) is added to start the […] reaction. 2) Detection step: Gold mix is added to the assay system, then stabilizers are added. After incubation the absorbance of the solution is read at OD 635 nm. The recorded OD signal is proportional to the enzyme activity.
Briefly, 25 μl human CD73 (0.5 nM final concentration) in the enzymatic buffer solutions (20 mM Tris, 25 mM NaCl, 1 mM MgCl2, pH 7.5, 0.005% Tween-20) were mixed with various concentrations of the test compound (dissolved in 100% DMSO). These solutions were incubated for 15 min at 25° C., and subsequently 25 μl AMP (30 μM final concentration) was added to start the reaction. The final reaction mixture of enzyme-substrate-compound was incubated for 20 min at 37° C. Meanwhile ‘Gold mix’ was prepared shortly before use by adding 1/100 vol. of accelerator to the PiColorLock™ Gold reagent. 12 μL/well of the ‘Gold mix’ was added to assay plate containing 50 μL enzyme reaction buffer and incubated at 25° C. for 5 min. 5 μL/well stabilizer was added to the assay plate and incubated at 25° C. for 30 min. The absorbance of the well solutions was measured at 635 nm on a Spark 10M instrument (TECAN).
The percent (%) inhibition at each concentration of a compound was calculated relative to the OD value in the Max and Min control wells contained within each assay plate. The Max control wells contained enzyme and substrate as 0% inhibition, and the M control wells only contained substrate without enzyme as 100% inhibition. The concentrations and percent inhibition values for a test compound are plotted and the concentration of the compound required to achieve 50% inhibition (IC50) was determined with a four-parameter logistic dose response equation.

[3] = human CD73 0.5 nM, AMP 30 μM, PiColorLock phosphate detection, read-out: Potency (IC50, CD73 enzyme assay)

Row | Compound | IC50 [1] | IC50 [2, 3] | IC50 [2]
1 | O=P(O)(O)CP(=O)(O)OC[C@H]1O[C@@H](c2cnc3c(NC4CCCC4)ncnn23)[C@H](O)[C@@H]1O [Compound 1, (((((2R,3S,4R,5S)-5-(4-(cyclopentylamino)imidazo[2,1-f][1,2,4]triazin-7-yl)-3,4-dihydroxytetrahydrofuran-2-yl)methoxyxhydroxy)phosphoryl)methyl)phosphonic acid] | < 1 nM | < 10 nM | 
2 | COP(=O)(CP(=O)(O)O)OC[C@H]1O[C@@H](c2cnc3c(NC4CCCC4)nc(Cl)nn23)[C@H](O)[C@@H]1O (stereo partly drawn) [Compound 71, (((((2R,3S,4R,1S)-5-(2-chloro-4-(cyclopentylamino)imidazo[2,1-f][1,2,4]triazin-7-yl)-3,4-dihydroxytetrahydrofuran-2-yl)methoxy)(methoxy)phosphoryl)methy)phosphonic Acid] |  |  | 10 to 99 nM
3 | COP(=O)(CP(=O)(OC)OC[C@H]1O[C@@H](c2cnc3c(N4CC5CCCC5C4)nc(Cl)nn23)[C@@H](F)[C@@H]1O)OC (stereo partly drawn) [Compound 76, ((2R,3R,4S,5S)-5-(2-chloro-4-(hexahydrocyclopenta[c]pyrrol-2(1H)-yl)imidazo[2,1-f][1,2,4]triazin-7-yl)-4-fluoro-3-hydroxytetrahydrofuran-2-yl)methyl methyl ((dimethoxyphosphoryl)methyl)phosphonate] |  | > 1000 nM | 
4 | C=Cc1nc(NC2CCCC2)c2ncc([C@@H]3O[C@H](COP(=O)(O)CP(=O)(O)O)[C@@H](O)[C@H]3O)n2n1 [Compound 80, (((((2R,3S,4R,1S)-5-(4-(cyclopentylamino)-2-vinylimidazo[2,1-f][1,2,4]triazin-7-yl)-3,4-dihydroxytetrahydrofuran-2-yl)methoxy)(hydroxy)phosphoryl)methyl)phosphonic Acid] |  | 10 to 99 nM | 

Further lines, with some results ahead:

Row | IC50 [1] | IC50 [2, 3] | Compound | IC50 [2]
5 | 1 to 9.9 nM | 10 to 99 nM | O=P(O)(O)CP(=O)(O)OC[C@H]1O[C@@H](c2cnc3c(NCc4ccccc4)ncnn23)[C@H](O)[C@@H]1O [Compound 2, (((((2R,3S,4R,1S)-5-(4-(benzylamino)imidazo[2,1-f][1,2,4]triazin-7-yl)-3,4-dihydroxytetrahydrofuran-2-yl)methoxy)(hydroxy)phosphoryl)methyl)phosphonic Acid] | 
6 |  | 100 to 999 nM | CC(C)OC(=O)OCOP(=O)(CP(=O)(O)OC[C@H]1O[C@@H](c2cnc3c(NC4CCCC4)nc(Cl)nn23)[C@H](O)[C@@H]1O)OCOC(=O)OC(C)C [Compound 70, (((((((2R,3S,4R,5S)-5-(2-chloro-4-(cyclopentylamino)imidazo[2,1-f][1,2,4]triazin-7-yl)-3,4-dihydroxytetrahydrofuran-2-yl)methoxy)(hydroxy)phosphoryl)methyl)phosphoryl)bis(oxy)) bis(methylene) diisopropyl bis(carbonate)] | 
7 |  | < 10 nM | O=P(O)(O)CP(=O)(O)OC[C@H]1O[C@@H](c2cnc3c(NCC4CCC(O)CC4)nc(Cl)nn23)[C@H](O)[C@@H]1O (stereo partly drawn) [Compound 77, (((((2R,3S,4R,1S)-5-(2-chloro-4-(((4-hydroxycyclohexyl)methyl)amino)imidazo[2,1-f][1,2,4]triazin-7-yl)-3,4-dihydroxytetrahydrofuran-2-yl)methoxy)(hydroxy)phosphoryl)methyl)phosphonic Acid] | 
8 |  | < 10 nM | O=P(O)(O)CP(=O)(O)OC[C@H]1O[C@@H](c2cnc3c(NCC4CCCC(O)C4)nc(Cl)nn23)[C@H](O)[C@@H]1O (stereo partly drawn) [Compound 78, (((((2R,3S,4R,5S)-5-(2-chloro-4-(((3-hydroxycyclohexyl)methyl)amino)imidazo[2,1-f][1,2,4]triazin-7-yl)-3,4-dihydroxytetrahydrofuran-2-yl)methoxy)(hydroxy)phosphoryl)methyl) phosphonic acid] | 
9 |  | < 10 nM | O=P(O)(O)CP(=O)(O)OC[C@H]1O[C@@H](c2cnc3c(N[C@H]4CC[C@H](N5CCCCC5)C4)nc(Cl)nn23)[C@H](O)[C@@H]1O [Compound 79, (((((2R,3S,4R,1S)-5-(2-chloro-4-(((1S,3S)-3-(piperidin-1-yl)cyclopentyl)amino)imidazo[2,1-f][1,2,4]triazin-7-yl)-3,4-dihydroxytetrahydrofuran-2-yl)methoxy)(hydroxy)phosphoryl)methyl)phosphonic Acid] | 
10 |  | 10 to 99 nM | O=P(O)(O)CP(=O)(O)OC[C@H]1O[C@@H](c2coc3c(NCc4ccccc4)ncnc23)[C@H](O)[C@@H]1O [Compound 81, (((((2R,3S,4R,5R)-5-(4-(benzylamino)furo[3,2-d]pyrimidin-7-yl)-3,4-dihydroxytetrahydrofuran-2-yl)methoxyxhydroxy)phosphoryl)methyl)phosphonic acid] | 
